We go through one compound from patent US20240016860A1, “BACILLUS COAGULANS FOR IMPROVING CONSTIPATION AND APPLICATION THEREOF” (Thankcome Biological Science and Technology (Suzhou) Co., …, priority 2022, published 2024).

Format in all cases: in vivo, Kunming mice
Experiment [1] deals with vasoactive intestinal peptide (VIP). As to the kind of experiment: Serum gastrointestinal hormone ELISA: VIP. The conditions noted are these: Bis group: bisacodyl 100 mg/kg per day. How it is done:
(§1) After a week of adaptive culture, 40 mice are randomly divided into 5 groups, with 8 mice in each group, namely the group of normal control (NC), group of model (GM), BC69 low-dose group (BC-L), BC69 high-dose group (BC-H) and bisacodyl drug treatment group (Bis). During the experiment, saline gavage of 0.25 mL is administered daily to NC and GM mice; from day 1 to day 4, all mice except NC mice are additionally gavaged with loperamide hydrochloride suspension (1 mg/mL) 0.25 mL twice daily (at 9:00 a.m. and 2:00 p.m. respectively) to induce a functional constipation model of mice; after gavage on day 4, all mice are fasted from food but not water for 16 h; from day 5 to day 11, […] are gavaged with Bacillus coagulans BC suspension 0.25 mL every day, where the concentrations are 1.0×10^8 colony-forming units per milliliter (CFU/mL) and 4.0×10^9 CFU/mL respectively; mice of group Bis are gavaged with bisacodyl aqueous solution at 100 milligrams per kilogram (mg/kg) per day; after the completion of gavage on day 11, all groups of mice are fasted from food but not water for 16 h. […]
(§2) The contents of endothelin (ET), gastrin (Gas), motilin (MTL), substance P (SP), somatostatin (SS) and vasoactive intestinal peptide (VIP) in serum are determined according to the instructions of the enzyme-linked immuno sorbent assay (ELISA) kit.

The subject of the next experiment is NFκB mRNA. As to the kind of experiment: RT-qPCR mRNA expression in small intestine: NFκB. Particulars: 2^−ΔΔCt, actin reference, Bis group: bisacodyl 100 mg/kg per day. How it is done: (§3) After a week of adaptive culture, 40 mice are randomly divided into 5 groups, with 8 mice in each group, namely the group of normal control (NC), group of model (GM), BC69 low-dose group (BC-L), BC69 high-dose group (BC-H) and bisacodyl drug treatment group (Bis). […]
(§4) Messenger ribonucleic acid (mRNA) expressions of COX-2, c-kit, NFκB, iNOS, eNOS, nNOS and SCF are detected by RT-qPCR, and total RNA is extracted and complementary deoxyribonucleic acid (cDNA) reverse transcription is carried out according to the instructions of RNA extraction kit and cDNA reverse transcription kit; then a microspectrophotometer is used to identify the purity of the RNA at 260/280 nanometers (nm). Actin (actin) is used as a standardized internal reference for RT-qPCR analysis, and final RT-qPCR product expression is determined using the 2^−ΔΔCt method.
On the technique in general: Real-time PCR tracks product formation cycle by cycle.

In another experiment the test system is iNOS mRNA. As to the kind of experiment: RT-qPCR mRNA expression in small intestine: iNOS. The conditions noted are these: 2^−ΔΔCt, actin reference, Bis group: bisacodyl 100 mg/kg per day. Here is the method: as §3, §4
The next experiment deals with gastrin (Gas). As to the kind of experiment: Serum gastrointestinal hormone ELISA: Gas. The conditions noted are these: Bis group: bisacodyl 100 mg/kg per day. Here is the method:
as §1, §2

A further experiment has as its system nNOS mRNA. As to the kind of experiment: RT-qPCR mRNA expression in small intestine: nNOS. The conditions noted are these: 2^−ΔΔCt, actin reference, Bis group: bisacodyl 100 mg/kg per day. How it is done: as §3, §4
The test system of the next experiment is substance P (SP). As to the kind of experiment: Serum gastrointestinal hormone ELISA: SP. The conditions noted are these: Bis group: bisacodyl 100 mg/kg per day. How it is done:
as §1, §2

Another experiment deals with endothelin-1 (ET-1). As to the kind of experiment: Serum gastrointestinal hormone ELISA: ET-1. Particulars: Bis group: bisacodyl 100 mg/kg per day. Here is the method:
as §1, §2
(In an ELISA, binding on a coated surface is turned into a signal by an enzyme label.)

The next experiment has as its system SCF mRNA. As to the kind of experiment: RT-qPCR mRNA expression in small intestine: SCF. Particulars: 2^−ΔΔCt, actin reference, Bis group: bisacodyl 100 mg/kg per day. How it is done: as §3, §4
In another experiment the test system is COX-2 mRNA. As to the kind of experiment: RT-qPCR mRNA expression in small intestine: COX-2. The conditions noted are these: 2^−ΔΔCt, actin reference, Bis group: bisacodyl 100 mg/kg per day. Here is the method: as §3, §4
In another experiment the test system is c-kit mRNA. As to the kind of experiment: RT-qPCR mRNA expression in small intestine: c-kit. Particulars: 2^−ΔΔCt, actin reference, Bis group: bisacodyl 100 mg/kg per day. How it is done: as §3, §4
Another experiment has as its system eNOS mRNA. As to the kind of experiment: RT-qPCR mRNA expression in small intestine: eNOS. The conditions noted are these: 2^−ΔΔCt, actin reference, Bis group: bisacodyl 100 mg/kg per day. How it is done: as §3, §4
Another experiment has as its system motilin (MTL). As to the kind of experiment: Serum gastrointestinal hormone ELISA: MTL. Particulars: Bis group: bisacodyl 100 mg/kg per day. How it is done:
as §1, §2

The test system of a further experiment is somatostatin (SS). As to the kind of experiment: Serum gastrointestinal hormone ELISA: SS. Particulars: Bis group: bisacodyl 100 mg/kg per day. How it is done: as §1, §2

Each structure is given as a SMILES string.

With `CC(=O)Oc1ccc(C(c2ccc(OC(C)=O)cc2)c2ccccn2)cc1` [Bis, bisacodyl], in experiment [1], the “VIP” value is given as 36.13 ± 2.37 pg/mL. Moreover, in the experiment on NFκB mRNA, the “mRNA expression levels NFκB” value is 2.21 ± 0.84. In addition, in the experiment with iNOS mRNA, the “mRNA expression levels iNos” value turned out to be 0.04 ± 0.00. Further, in the experiment on gastrin (Gas), the “Gas” value is on record as 10.09 ± 0.69 pg/mL. The “mRNA expression levels nNos” value in the experiment with nNOS mRNA is 0.04 ± 0.00. The “SP” value in the experiment with substance P (SP) was found to be 51.60 ± 3.48 pg/mL. Further, the “ET-1” value with endothelin-1 (ET-1) was found to be 21.44 ± 1.28 pg/mL. For the same compound, in the experiment on SCF mRNA, the “mRNA expression levels SCF” value is 3.66 ± 0.62. The “mRNA expression levels COX-2” value in the experiment with COX-2 mRNA is listed as 0.43 ± 0.05. Further, in the experiment on c-kit mRNA, the “mRNA expression levels c-kit” value was found to be 0.08 ± 0.01. Further, in the experiment on eNOS mRNA, the “mRNA expression levels eNos” value came to 0.03 ± 0.00. In addition, in the experiment with motilin (MTL), the “MTL” value turned out to be 57.89 ± 2.65 pg/mL. In addition, the “SS” value in the experiment on somatostatin (SS) turned out to be 28.09 ± 1.89 pg/mL.
